One data set has as its target T1, human P2Y1-R (Homo sapiens, UniProt P47900).
T1 construct: expressed in transfected cells; host or cells: 1321N1 astrocytoma cells
The data set can be described thus: [Ca^2+]i response of 1321N1 astrocytoma cells expressing P2Y1-R GFP. In kind it is cell-based. As to conditions: for EC50: agonist, read-out: EC50 at the P2Y1 receptor. Here is the method:
(§1) GFP constructs of human P2Y2-R, P2Y1-R and P2Y11-R were stably expressed in 1321N1 astrocytoma cells, which lack endogenous expression of P2X- and P2Y-receptors. The respective cDNA of the receptor gene was cloned into a pEGFPN1 vector and after transfection, using FuGENE 6 Transfection Reagent (Roche Molecular Biochemicals, Mannheim, Germany), cells were selected with 0.5 mg/ml G418 (geneticine; Merck Chemicals, Darmstadt, Germany) and grown in DMEM supplemented with 10% serum (FCS), 100 U/ml penicillin and 100 U/ml streptomycin at 37° C. and 5% CO2. The expression and cell membrane localization of the respective P2Y receptors was confirmed through the analysis of the GFP fluorescence. The functionality of the expressed GFP-labeled receptor in cells was verified by recording a change of [Ca^2+]i after stimulation with the appropriate receptor agonist.
(§2) 1321N1 astrocytoma cells transfected with the respective plasmid for P2Y-R-GFP expression plated on coverslips (22 mm diameter) and grown to approximately 80% density, were incubated with 2 μM fura 2/AM and 0.02% pluronic acid in Na-HBS buffer (Hepes buffered saline: 145 mM NaCl, 5.4 mM KCl, 1.8 mM CaCl2, 1 mM MgCl2, 25 mM glucose, 20 mM Hepes/Tris pH 7.4) for 30 min at 37° C. The cells were superfused (1 ml/min, 37° C.) with different concentrations of nucleotide in Na-HBS buffer. The nucleotide-induced change of [Ca^2+] was monitored by detecting the fluorescence intensities with excitations at 340 nm and 380 nm. Only GFP-labeled cells were analyzed. Microsoft Excel (Microsoft Corp., Redmond, Wash., USA) and SigmaPlot (SPSS Inc., Chicago, Ill., USA) were used to derive the concentration-response curves and EC50 values from the average response amplitudes obtained in at least three independent experiments (Ecke et al., 2006; Ecke et al., 2008). Only cells with a clear GFP-signal and with the typical calcium response kinetics upon agonist pulse application were included in the data analysis. The nucleotide induced change of [Ca^2+]i was monitored by detecting the respective emission intensity of fura 2/AM at 510 nm with 340 nm and 380 nm excitations (Ubl et al., 1998). The average maximal amplitude of the responses and the respective standard errors were calculated from ratio of the fura 2/AM. The GFP-tagged P2Y receptors are suitable for pharmacological and physiological studies, as previously reported (Tulapurkar et al., 2004; Tulapurkar et al., 2006; Zylberg et al., 2007).

Another data set has as its target T2, human P2Y2-R (Homo sapiens, UniProt P41231).
T2 construct: expressed in transfected cells; host or cells: 1321N1 astrocytoma cells
The data set can be described thus: [Ca^2+]i response of 1321N1 astrocytoma cells expressing P2Y2-R GFP. The class given is cell-based. To be noted: for EC50: agonist, read-out: EC50 at the P2Y2 receptor; for activity at the P2Y2 receptor: isomer A of APPCCl2P-α-S at 100 μM. How it is done:
as §1, §2

Data set [1] has as its target T3, TNAP (Homo sapiens, UniProt P05186).
T3 sequence (P05186 18-501): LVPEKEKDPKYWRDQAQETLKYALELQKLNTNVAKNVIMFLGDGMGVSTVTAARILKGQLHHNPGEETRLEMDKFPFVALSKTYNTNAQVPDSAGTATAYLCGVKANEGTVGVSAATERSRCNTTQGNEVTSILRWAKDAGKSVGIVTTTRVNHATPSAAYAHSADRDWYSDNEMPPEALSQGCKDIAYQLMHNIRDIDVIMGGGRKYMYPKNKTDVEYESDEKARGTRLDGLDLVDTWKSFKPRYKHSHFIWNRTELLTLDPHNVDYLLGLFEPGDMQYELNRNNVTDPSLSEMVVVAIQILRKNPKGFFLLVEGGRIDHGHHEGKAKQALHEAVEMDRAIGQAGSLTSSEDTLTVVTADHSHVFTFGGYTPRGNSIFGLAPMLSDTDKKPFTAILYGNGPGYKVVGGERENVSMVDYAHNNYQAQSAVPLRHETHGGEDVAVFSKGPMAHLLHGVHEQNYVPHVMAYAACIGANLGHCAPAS
The data set is described as follows: Hydrolysis by TNAP. In kind it is in vitro ADME. To be noted: 1 h. The text has this: The metabolic stability of APPCCl2P-α-S (isomer A) and APCPP-γ-S was further proven by their resistance to enzymatic hydrolysis by TNAP.

For data set [2], the target named is T3, TNAP. The data set is described as follows: Inhibition of TNAP. In kind it is biochemical.
The test system of another data set is cortical neurons. The data set can be described thus: Neuroprotection of cultured cortical neurons exposed to FeSO4 or FeSO4/H2O2. In kind it is cell-based. How it is done: FIGS. 10A-10B show the neuroprotective effect of ATP-γ-S and GDP-β-S (0.2-200 μM, t=24 h) as evaluated by MTT production in cortical neurons exposed for 24 h to either FeSO4 at final concentration of 3 μM (10A); or both FeSO4 (3 μM) and H2O2 (100 μM) (10B). The results shown are the mean±SEM of three independent experiments in quadruplicate.
Cultured cortical neurons in 96-well plates were treated with different concentrations of FeSO4, or hydrogen peroxide and FeSO4, for 24 h at 37° C. Following exposure to various insults, the cells were treated with ATP-γ-S and GDP-β-S as described. Cells were subsequently incubated for a further 18-24 h as indicated before being assessed for viability measures. Neurons were treated with ATP-γ-S and GDP-β-S at three concentrations ([…]) simultaneously with 1.5, 3 or 6 μM FeSO4 for 24 h. Following 24 h incubation in the presence of both FeSO4 and ATP-γ-S and GDP-β-S cell viability measures were assessed by XTT assay. All experiments were performed in triplicate.
FeSO4 induced a concentration-dependent decrease in cell viability as assessed by XTT assay and morphological assessment following 24 h of exposure (FIG. 9). The neuroprotective effect of ATP-γ-S and GDP-β-S (due to iron chelation) was evaluated in cortical neurons exposed to FeSO4 for 24 h (FIG. 10).

A word on the EC50: it is the midpoint of the concentration-response curve. In general, IC50 refers to the concentration that gives 50% inhibition. For orientation: inhibition means the percentage by which the read-out fell short of the control.

Molecules are shown by their SMILES. Read-outs that look alike come from different tables or passages of the source.

T1 sequence (P47900 whole entry): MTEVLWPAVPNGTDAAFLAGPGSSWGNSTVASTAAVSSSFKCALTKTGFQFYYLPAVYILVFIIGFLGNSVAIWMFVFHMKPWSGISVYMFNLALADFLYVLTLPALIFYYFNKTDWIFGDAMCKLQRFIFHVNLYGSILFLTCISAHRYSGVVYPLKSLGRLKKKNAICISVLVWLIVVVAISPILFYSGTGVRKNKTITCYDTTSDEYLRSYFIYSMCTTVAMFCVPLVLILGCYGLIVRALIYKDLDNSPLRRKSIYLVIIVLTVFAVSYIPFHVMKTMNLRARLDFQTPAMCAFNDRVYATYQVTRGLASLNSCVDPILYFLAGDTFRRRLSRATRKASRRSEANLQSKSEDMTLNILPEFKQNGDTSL
T2 sequence (P41231 whole entry): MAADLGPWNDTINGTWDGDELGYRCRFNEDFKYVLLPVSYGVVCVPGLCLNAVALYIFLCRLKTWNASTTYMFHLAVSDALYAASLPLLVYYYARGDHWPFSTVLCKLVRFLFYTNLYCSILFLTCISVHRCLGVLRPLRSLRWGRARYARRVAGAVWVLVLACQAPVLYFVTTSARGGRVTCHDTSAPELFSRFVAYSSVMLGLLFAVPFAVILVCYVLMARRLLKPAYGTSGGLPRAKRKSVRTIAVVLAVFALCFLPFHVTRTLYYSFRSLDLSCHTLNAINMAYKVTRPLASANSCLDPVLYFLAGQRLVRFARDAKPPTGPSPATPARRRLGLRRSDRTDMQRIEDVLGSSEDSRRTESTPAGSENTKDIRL

In the case of `Nc1ncnc2c1ncn2[C@@H]1O[C@H](COP(O)(=S)OP(=O)(O)C(Cl)(Cl)P(=O)(O)O)[C@@H](O)[C@H]1O` (single isomer, unassigned) [APPCCl2P-α-S, adenosine 5′-[Pα-thio]-β,γ-(dichloromethylene)triphosphate], the concentration giving a half-maximal response (EC50) on human P2Y1-R and at human P2Y2-R was more than 10 µM each time.
As for `Nc1ncnc2c1ncn2[C@@H]1O[C@H](COP(O)(=S)OP(=O)(O)C(Cl)(Cl)P(=O)(O)O)[C@@H](O)[C@H]1O` (single isomer, unassigned; isomer a) [APPCCl2P-α-S (isomer A), adenosine 5′-[Pα-thio]-β,γ-(dichloromethylene)triphosphate], on TNAP [1], the “Hydrolysis by TNAP” value is reported as “fully stable”. In addition, the “inhibition of TNAP” value against TNAP [2] (100 μM) turned out to be 17%. In addition, the “activity at the P2Y2 receptor” value on human P2Y2-R is listed as “no activity as agonist”.
In the case of `Nc1ncnc2c1ncn2[C@@H]1O[C@H](COP(=O)(O)OP(O)(O)=S)[C@@H](O)[C@H]1O` [ADP-β-S, adenosine 5′-[β-thio]diphosphate, reference compound], the IC50 in the data set on cortical neurons (Table 2, neuroprotection of primary neurons exposed to FeSO4, read-out: IC50) amounted to 1.2 ± 0.007 µM.
As to `Nc1ncnc2c1ncn2[C@@H]1O[C@H](COP(=O)(O)CP(=O)(O)OP(O)(O)=S)[C@@H](O)[C@H]1O` [APCPP-γ-S, adenosine 5′-[Pγ-thio]-α,β-methylenetriphosphate], at TNAP [1], the “Hydrolysis by TNAP” value turned out to be 2.5%. At TNAP [2], this molecule gave an inhibition at 100 µM of 8%. Besides, on human P2Y1-R, the “no activity at the P2Y1 receptor up to (concentration)” value is given as “up to 10 μM” and the EC50 was more than 10 µM. In addition, on human P2Y2-R, the EC50 was more than 10 µM and the “activity at the P2Y2 receptor” value is reported as “neither agonist nor antagonist”. In the data set on cortical neurons (Cortical neurone, read-out: IC50 protection from damage caused by FeSO4), the IC50 came out at 0.04 µM.

Values taken from patent US20140378408A1, “NUCLEOSIDE 5'-PHOSPHOROTHIOATE ANALOGUES AND USES THEREOF” (BAR-ILAN UNIVERSITY, an Israeli University, priority 2012, published 2014).
